This note sets out measurements from ChEMBL document CHEMBL4033707, “Discovery of a novel aminopyrazine series as selective PI3Kα inhibitors” (Bioorg Med Chem Lett, 2017).

The IC50 is the concentration that inhibits the measured activity by half. Broadly, the Papp A→B is the apparent permeability from the apical to the basolateral side of a cell layer. In general, Cmax refers to the maximum level reached in the sampled fluid or tissue. As a reminder, the bioavailability is the share of a dose that reaches the circulation, judged against a reference dose that is usually intravenous. High values mean good availability, low ones poor availability. As usually defined, the CL/F is clearance divided by bioavailability, as obtained after extravascular dosing. By solubility (thermodynamic) is commonly meant solubility found after equilibrating the solid with the medium. Usually logD stands for lipophilicity at a set pH, counting ionised and neutral species. High values mean a more lipophilic compound, low ones a more hydrophilic compound. Broadly, the AUC is concentration integrated over time. Lower therefore signals less exposure. Usually pKa stands for the pH at which an ionisable group is half protonated. One may read the solubility as how much of the substance goes into solution per volume.

In brackets after ≈: the same amount, converted by molar mass. Activity calls are given as the source filed them. No cut-off for these calls is given here.

Data set [1] concerns the target T1, Phosphatidylinositol 4,5-bisphosphate 3-kinase catalytic subunit beta isoform (Homo sapiens, UniProt P42338). Briefly: Inhibition of PI3Kbeta in PTEN-deficient human MDA-MB-468 cells assessed as reduction in AKT phosphorylation at Ser473.
Data set [2] in a line: Inhibition of PI3Kalpha mutant in human BT474 cells assessed as reduction in AKT phosphorylation at Thr308. The class given is cell-based. To be noted: BT-474.
In data set [3] the target is T1, Phosphatidylinositol 4,5-bisphosphate 3-kinase catalytic subunit beta isoform. Nature of the data set: Inhibition of PI3Kbeta (unknown origin).
Data set [4] addresses Phosphatidylinositol 4,5-bisphosphate 3-kinase catalytic subunit alpha isoform (Homo sapiens, UniProt P42336). Briefly: Inhibition of PI3Kalpha (unknown origin).
The target of data set [5] is Phosphatidylinositol 4,5-bisphosphate 3-kinase catalytic subunit delta isoform (Homo sapiens, UniProt O00329). Nature of the data set: Inhibition of PI3Kdelta (unknown origin).
For data set [6], the target named is T2, Phosphatidylinositol 4,5-bisphosphate 3-kinase catalytic subunit gamma isoform (Homo sapiens, UniProt P48736). Nature of the data set: Inhibition of human PI3Kgamma (2 to 1102 residues) at 50 uM by ADP Glo HTS assay. For orientation: ADP-Glo turns the ADP formed in a reaction into a luminescent signal.
The subject of data set [7] is Phosphatidylinositol 4,5-bisphosphate 3-kinase catalytic subunit alpha isoform (Homo sapiens), P42336 [E545K]. Nature of the data set: Inhibition of human PI3Kalpha (2 to 1068 residues)/p85 (1 to 724 residues) E545K mutant at 50 uM by ADP Glo HTS assay.
The subject of data set [8] is Phosphatidylinositol 4,5-bisphosphate 3-kinase catalytic subunit alpha isoform (Homo sapiens), P42336 [E542K]. Briefly: Inhibition of human PI3Kalpha (2 to 1068 residues)/p85 (1 to 724 residues) E542K mutant at 50 uM by ADP Glo HTS assay.
The target in data set [9] is Choline/ethanolamine kinase (Homo sapiens) (UniProt Q9Y259). Briefly: Inhibition of human CHKbeta (1 to 395 residues) at 50 uM by ADP Glo HTS assay.
Chain of Choline/ethanolamine kinase (Homo sapiens) (Q9Y259 whole entry, the tested form may be a part): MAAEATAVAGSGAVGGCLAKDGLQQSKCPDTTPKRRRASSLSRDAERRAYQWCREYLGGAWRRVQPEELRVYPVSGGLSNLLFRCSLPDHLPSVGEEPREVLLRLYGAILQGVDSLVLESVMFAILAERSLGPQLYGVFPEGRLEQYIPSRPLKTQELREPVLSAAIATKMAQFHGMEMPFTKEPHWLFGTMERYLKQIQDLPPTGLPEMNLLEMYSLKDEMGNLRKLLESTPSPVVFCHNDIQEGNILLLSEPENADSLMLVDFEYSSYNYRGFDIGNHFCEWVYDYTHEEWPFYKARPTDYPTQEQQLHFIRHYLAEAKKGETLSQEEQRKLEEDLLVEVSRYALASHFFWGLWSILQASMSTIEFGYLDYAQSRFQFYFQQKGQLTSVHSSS
Data set [10] is described as follows: Apparent permeability of the compound across apical side to basolateral side in human Caco2 cells. The format is ADME, cell-based. To be noted: Caco-2. A general note: Caco-2 cells form a polarised layer with tight junctions and transporters.
The test system of data set [11] is MCF7. Nature of the data set: Anti-tumor activity against human MCF7 cells harboring PI3KCA E545K mutant xenografted in Swiss nu/nu mouse assessed as tumor growth inhibition at 50 mg/kg, po administered twice daily for 21 days measured post last dose relative to control. The note with it: 504 h, read-out: TGI. The class given is functional. A general note: In xenograft studies the graft and the host belong to different species.

Data set [12] is described as follows: Volume of distribution in Han Wistar rat at 4 umol/kg, iv or 10 umol/kg, po. The format is ADME, organism-based. The note with it: in vivo.
The nature of data set [13]: Cmax in mouse at 100 mg/kg, po. The arrangement: dose 100 mg/kg, route oral. The note with it: in vivo. The format is ADME, organism-based.
For the next data set, the system named is Canis familiaris. Briefly: Volume of distribution in Beagle dog at 1 umol/kg, po. The class given is ADME, Canis lupus familiaris. To be noted: in vivo.
A short description of data set [14]: Oral bioavailability in Beagle dog at 1 umol/kg. The class given is ADME, organism-based, Canis lupus familiaris. The note with it: in vivo.
Data set [15] in a line: Clearance in Han Wistar rat at 4 umol/kg, iv or 10 umol/kg, po. The class given is ADME, organism-based. To be noted: in vivo.
The target of data set [16] is Diacylglycerol kinase gamma (Homo sapiens) (UniProt P49619). Briefly: Inhibition of human DGKgamma (1 to 752 residues) at 50 uM by ADP Glo HTS assay.
A short description of data set [17]: Oral bioavailability in Han Wistar rat at 10 umol/kg. The class given is ADME, organism-based. The note with it: in vivo.
Data set [18] deals with Diacylglycerol kinase zeta (Homo sapiens) (UniProt Q13574). Nature of the data set: Inhibition of human DGKzeta (1 to 929 residues) at 50 uM by ADP Glo HTS assay.
Chain of Diacylglycerol kinase zeta (Homo sapiens) (Q13574 whole entry, the tested form may be a part, canonical isoform): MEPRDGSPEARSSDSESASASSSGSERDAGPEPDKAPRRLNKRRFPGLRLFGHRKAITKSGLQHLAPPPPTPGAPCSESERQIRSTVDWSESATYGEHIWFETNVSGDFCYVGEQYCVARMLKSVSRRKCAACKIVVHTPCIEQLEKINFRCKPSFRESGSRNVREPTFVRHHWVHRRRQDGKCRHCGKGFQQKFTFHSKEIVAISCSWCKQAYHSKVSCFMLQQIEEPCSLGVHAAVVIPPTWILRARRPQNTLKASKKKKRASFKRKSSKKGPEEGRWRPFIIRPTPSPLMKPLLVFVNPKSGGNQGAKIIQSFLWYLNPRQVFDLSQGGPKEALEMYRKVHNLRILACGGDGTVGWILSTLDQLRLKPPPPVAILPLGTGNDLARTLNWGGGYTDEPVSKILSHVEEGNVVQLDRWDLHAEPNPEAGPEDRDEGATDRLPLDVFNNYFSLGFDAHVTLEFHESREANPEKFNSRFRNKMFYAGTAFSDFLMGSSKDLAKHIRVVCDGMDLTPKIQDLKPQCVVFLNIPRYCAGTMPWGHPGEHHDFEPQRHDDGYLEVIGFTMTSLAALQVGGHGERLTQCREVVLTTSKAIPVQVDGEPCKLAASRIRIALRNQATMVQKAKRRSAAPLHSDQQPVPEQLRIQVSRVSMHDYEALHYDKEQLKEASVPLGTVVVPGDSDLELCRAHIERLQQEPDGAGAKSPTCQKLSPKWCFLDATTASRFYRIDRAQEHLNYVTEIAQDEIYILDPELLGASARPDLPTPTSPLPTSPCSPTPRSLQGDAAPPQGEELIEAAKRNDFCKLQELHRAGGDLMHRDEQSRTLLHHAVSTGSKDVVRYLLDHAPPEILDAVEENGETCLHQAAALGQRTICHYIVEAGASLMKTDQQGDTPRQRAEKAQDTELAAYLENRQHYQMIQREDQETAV
For data set [19], the target named is T2, Phosphatidylinositol 4,5-bisphosphate 3-kinase catalytic subunit gamma isoform. Nature of the data set: Inhibition of PI3Kgamma (unknown origin).
Data set [20] can be described thus: Clearance in Beagle dog at 1 umol/kg, po. The format is ADME, Canis lupus familiaris. The note with it: in vivo.
In data set [21] the target is Phosphatidylinositol 3-kinase regulatory subunit alpha (Homo sapiens) (UniProt P27986). Nature of the data set: Inhibition of human PI3K p85alpha (1 to 724 residues) at 50 uM by ADP Glo HTS assay.
The nature of data set [22]: Aqueous solubility of the compound in phosphate buffer at pH 7.4 using crystalline sample. The class given is physicochemical.
Data set [23] is described as follows: Octanol-buffer partition coefficient, log D of the compound at pH 7.4 by shake-flask method. The format is physicochemical.
In data set [24] the target is Serine/threonine-protein kinase mTOR (Homo sapiens, UniProt P42345). Nature of the data set: Inhibition of m-TOR (unknown origin).
Data set [25] is described as follows: AUC in mouse at 100 mg/kg, po. The class given is ADME, organism-based. To be noted: in vivo.
Data set [26] addresses Choline kinase alpha (Homo sapiens) (UniProt P35790). Nature of the data set: Inhibition of human CHKalpha (1 to 457 residues) at 50 uM by ADP Glo HTS assay.
Data set [27] concerns MCF7. Nature of the data set: Anti-tumor activity against human MCF7 cells harboring PI3KCA E545K mutant xenografted in Swiss nu/nu mouse assessed as tumor growth inhibition at 10 mg/kg, po administered twice daily for 21 days measured post last dose relative to control. The format is functional. To be noted: 504 h, read-out: TGI.
Data set [28] in a line: Dissociation constant, pKa of the compound. The format is physicochemical.
Data set [29] has as its target Diacylglycerol kinase beta (Homo sapiens) (UniProt Q9Y6T7). Nature of the data set: Inhibition of human DGKbeta (1 to 804 residues) at 50 uM by ADP Glo HTS assay.
The test system of data set [30] is MCF7. Briefly: Anti-tumor activity against human MCF7 cells harboring PI3KCA E545K mutant xenografted in Swiss nu/nu mouse assessed as tumor growth inhibition at 25 mg/kg, po administered twice daily for 21 days measured post last dose relative to control. The format is functional. The note with it: 504 h, read-out: TGI.
Data set [31] has as its target Phosphoinositide 3-kinase regulatory subunit 4 (Homo sapiens, UniProt Q99570). Nature of the data set: Inhibition of VPS15 (unknown origin).
Data set [32] addresses Phosphatidylinositol 4-kinase beta (Homo sapiens, UniProt Q9UBF8). Briefly: Inhibition of human PI4KB (1 to 801 residues) by ADP Glo HTS assay.
For data set [33], the target named is Phosphatidylinositol 3-kinase regulatory subunit beta (Homo sapiens) (UniProt O00459). Nature of the data set: Inhibition of human PI3K p85beta (1 to 724 residues) at 50 uM by ADP Glo HTS assay.
Data set [34] addresses Sphingosine kinase 1 (Homo sapiens) (UniProt Q9NYA1). Nature of the data set: Inhibition of human SphK1 (1 to 384 residues) at 50 uM by […] HTS assay.
For data set [35], the target named is Sphingosine kinase 2 (Homo sapiens) (UniProt Q9NRA0). Nature of the data set: Inhibition of human SPHK 2 (1 to 654 residues) at 50 uM by ADP Glo HTS assay.
The nature of data set [36]: Aqueous solubility of the compound in phosphate buffer at pH 7.4. The format is physicochemical.

T1 sequence (P42338 whole entry, canonical isoform): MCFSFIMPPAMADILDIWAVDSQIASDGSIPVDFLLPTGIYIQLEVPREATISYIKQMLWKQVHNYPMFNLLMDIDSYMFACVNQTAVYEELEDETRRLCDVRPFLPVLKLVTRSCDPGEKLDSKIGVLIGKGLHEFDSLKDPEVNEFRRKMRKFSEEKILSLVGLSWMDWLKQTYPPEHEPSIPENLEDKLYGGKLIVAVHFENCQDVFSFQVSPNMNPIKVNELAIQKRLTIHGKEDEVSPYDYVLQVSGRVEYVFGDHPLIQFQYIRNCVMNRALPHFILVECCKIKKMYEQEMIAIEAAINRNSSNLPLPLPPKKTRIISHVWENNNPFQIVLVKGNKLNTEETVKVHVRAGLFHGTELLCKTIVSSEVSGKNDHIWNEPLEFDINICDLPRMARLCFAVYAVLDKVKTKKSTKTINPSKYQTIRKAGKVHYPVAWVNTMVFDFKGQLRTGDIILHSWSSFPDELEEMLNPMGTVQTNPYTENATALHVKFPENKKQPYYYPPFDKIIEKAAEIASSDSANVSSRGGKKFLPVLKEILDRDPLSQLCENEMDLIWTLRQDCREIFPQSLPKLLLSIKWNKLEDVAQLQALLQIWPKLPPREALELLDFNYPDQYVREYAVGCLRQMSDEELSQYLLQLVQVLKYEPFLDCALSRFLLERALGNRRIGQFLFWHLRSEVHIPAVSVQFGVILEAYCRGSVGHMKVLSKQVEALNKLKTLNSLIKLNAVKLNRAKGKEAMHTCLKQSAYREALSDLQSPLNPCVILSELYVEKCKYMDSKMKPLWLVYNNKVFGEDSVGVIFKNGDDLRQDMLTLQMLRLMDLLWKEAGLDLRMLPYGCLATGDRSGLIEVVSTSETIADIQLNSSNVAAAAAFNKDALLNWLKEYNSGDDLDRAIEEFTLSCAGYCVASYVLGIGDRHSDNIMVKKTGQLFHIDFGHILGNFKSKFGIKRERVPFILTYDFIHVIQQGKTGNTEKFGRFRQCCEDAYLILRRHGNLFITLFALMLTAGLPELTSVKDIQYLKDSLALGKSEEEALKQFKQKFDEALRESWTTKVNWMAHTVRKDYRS
Chain of Phosphatidylinositol 4,5-bisphosphate 3-kinase catalytic subunit alpha isoform (P42336 whole entry, canonical isoform): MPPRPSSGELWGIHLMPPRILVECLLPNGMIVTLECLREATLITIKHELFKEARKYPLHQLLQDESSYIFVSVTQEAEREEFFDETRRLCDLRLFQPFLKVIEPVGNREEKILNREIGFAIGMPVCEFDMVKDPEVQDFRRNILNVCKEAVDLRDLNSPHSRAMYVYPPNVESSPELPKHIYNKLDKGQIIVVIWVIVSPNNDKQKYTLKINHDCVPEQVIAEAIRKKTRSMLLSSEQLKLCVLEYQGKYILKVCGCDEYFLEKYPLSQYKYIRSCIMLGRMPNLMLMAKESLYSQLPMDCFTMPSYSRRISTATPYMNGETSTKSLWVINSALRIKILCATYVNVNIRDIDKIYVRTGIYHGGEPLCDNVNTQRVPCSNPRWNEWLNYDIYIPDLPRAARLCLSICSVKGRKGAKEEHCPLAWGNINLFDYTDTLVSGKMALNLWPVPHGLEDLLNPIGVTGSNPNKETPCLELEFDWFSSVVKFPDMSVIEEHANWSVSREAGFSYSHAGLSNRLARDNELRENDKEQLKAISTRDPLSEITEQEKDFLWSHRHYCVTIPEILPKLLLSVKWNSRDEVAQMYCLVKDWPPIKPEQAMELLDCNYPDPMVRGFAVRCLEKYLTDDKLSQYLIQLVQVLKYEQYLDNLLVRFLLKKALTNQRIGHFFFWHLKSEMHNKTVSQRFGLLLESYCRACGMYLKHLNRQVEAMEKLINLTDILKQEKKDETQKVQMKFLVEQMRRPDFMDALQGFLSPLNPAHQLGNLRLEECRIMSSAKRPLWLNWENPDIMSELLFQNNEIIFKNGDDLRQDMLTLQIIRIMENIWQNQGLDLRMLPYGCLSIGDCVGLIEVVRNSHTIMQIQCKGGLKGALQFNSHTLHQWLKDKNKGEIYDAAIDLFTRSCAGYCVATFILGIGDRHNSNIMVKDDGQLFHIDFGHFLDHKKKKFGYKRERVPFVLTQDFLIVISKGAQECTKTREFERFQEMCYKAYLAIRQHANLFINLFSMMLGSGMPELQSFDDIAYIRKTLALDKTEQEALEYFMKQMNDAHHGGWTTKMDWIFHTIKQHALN
Chain of Phosphatidylinositol 4,5-bisphosphate 3-kinase catalytic subunit alpha isoform (Homo sapiens), P42336 [E545K] (P42336 whole entry E545K, the tested form may be a part, canonical isoform): as the sequence (P42336 whole entry, canonical isoform) above, with E545K counted along it
Chain of Sphingosine kinase 1 (Homo sapiens) (Q9NYA1 whole entry, the tested form may be a part): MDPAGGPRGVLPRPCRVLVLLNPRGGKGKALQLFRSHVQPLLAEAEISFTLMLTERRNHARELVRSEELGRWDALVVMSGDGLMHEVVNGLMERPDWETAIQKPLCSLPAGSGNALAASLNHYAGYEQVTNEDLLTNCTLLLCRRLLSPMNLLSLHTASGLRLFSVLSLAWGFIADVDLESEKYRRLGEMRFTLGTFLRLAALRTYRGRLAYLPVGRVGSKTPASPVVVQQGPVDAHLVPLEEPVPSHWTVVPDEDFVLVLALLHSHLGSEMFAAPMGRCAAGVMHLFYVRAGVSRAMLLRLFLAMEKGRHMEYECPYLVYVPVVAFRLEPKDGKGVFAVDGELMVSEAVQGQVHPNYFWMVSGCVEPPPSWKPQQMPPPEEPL

In the case of `Cc1nc(N)c(-c2nc(C3CCN(C)CC3)nn2C)nc1-c1cnc2ccccn12`, the IC50 in [1] was found to be 200 nM; in data set [2], 49 nM; in [3] it was 32 nM; in data set [4], 5 nM.

Consider `CNC(=O)c1nc(-c2nc(-c3cnc4ccccn34)cnc2N)n(C)n1`, for which the IC50 in data set [1] is 21000 nM; in data set [2], 380 nM; in data set [3] it was 1300 nM; in data set [4], 20 nM.

`CN(C)CC(=O)N1CCC(n2cc(-c3cnc(N)c(-n4nnc5ccccc54)n3)cn2)CC1`: the IC50 in data set [2] is 58 nM.

On to `CO[C@H]1CC[C@H](NC(=O)c2nc(-c3nc(-c4cnc5ccccn45)c(C)nc3N)n(C)n2)CC1`, for which the IC50 was found to be 16000 nM in [1] and 22 nM in data set [2].

Consider `CNC(=O)c1nc(-c2nc(-c3cnc4ccccn34)c(C)nc2N)n(C)n1`, for which the IC50 was 8400 nM in data set [1]; 16 nM in data set [5]; 43 nM in data set [19]; 87 nM in [2]; 87 to 540 nM in data set [3]; 29000 nM in data set [24]. For the same compound, the IC50 was 16000 nM in data set [31], 2800 nM in [32] and 6 nM in data set [4]. Moreover, the inhibition result in [6], in data set [7], in data set [8], in data set [9], in data set [16] and in data set [18] was “inactive” each time. Also, the inhibition entry in data set [21], in [26], in data set [29], in data set [33], in data set [34] and in [35] was “inactive” each time. The Papp A→B in [10] came to 6 ×10⁻⁶ cm/s. The inhibition in vivo at 50 mg/kg in the data set on MCF7 [11] turned out to be 86%. Moreover, the Vd in data set [12] was found to be 0.9 L/kg; in the data set on Canis familiaris, 0.8 L/kg. The compound also showed a Cmax in [13] of 18 µM. Further, the bioavailability in [14] was determined as 60%; in data set [17], 46%. In addition, the clearance in data set [15] is 11 mL/min/kg. In [20], this compound registered a CL/F of 19 mL/min/kg. The compound also registered a solubility (thermodynamic) in data set [22] of 26 µM (≈ 9.45 µg/mL). In [23], this compound came in with a logD of 1.8. Further, the AUC in [25] turned out to be 36.2 µM·h. Further, in the data set on MCF7 [27], the inhibition in vivo at 10 mg/kg amounted to 29%. The compound also registered a pKa in data set [28] of 6.2. Further, the inhibition in vivo at 25 mg/kg in the data set on MCF7 [30] was found to be 44%.

As to `CNC(=O)c1nc(-c2nc(-c3cnn4ccccc34)c(C)nc2N)n(C)n1`, the IC50 in [1] is 1500 nM; in data set [2], 24 nM; in data set [3], 24 to 180 nM; in [4], < 10 nM. The Papp A→B in [10] is 36 ×10⁻⁶ cm/s. In [12], the Vd was determined as 0.8 L/kg. Further, the clearance in [15] is 27 mL/min/kg. In addition, the bioavailability in [17] came to 9%. In data set [23], this compound had a logD of 2.3. In data set [36], this compound registered a solubility of 7 µM (≈ 2.54 µg/mL). In data set [28], this compound displayed a pKa of 2.3.

For `Cc1nc(N)c(-c2cnn(C3CCN(C)CC3)n2)nc1-c1cnc2ccccn12`, the IC50 in data set [1] came to 550 nM; in data set [2], 100 nM; in [3] it was 76 nM; in data set [4], 8 nM.

`Cc1nc(N)c(-c2nc(C(=O)NCCN(C)C)nn2C)nc1-c1cnn2ccccc12`: the IC50 worked out at 1500 nM in data set [1] and 6 nM in data set [2].
